What was measured:
[1] = Paclitaxel release from pyrrole-functionalized PLA nanoparticles in 0.1N phosphate buffer; type: physicochemical; conditions: immersed in 0.1N phosphate buffer solution
Protocol: In a representative example, nanoparticles were prepared by dispersing a chloroform solution of a pyrrole polymer prepared as described hereinabove (0.1 gram), polylactic acid (0.4 grams, Mn=3,000) and paclitaxel (0.15 gram) in de-ionized water at room temperature with constant stirring.

[2] = Paclitaxel release from coated stent or plate into phosphate buffer pH 7.4 with 0.3% SDS, HPLC; type: physicochemical; conditions: stents/plates coated with polypyrrole derivatives
Protocol: The release characteristic of the stent or plate was determined by placing drug-loaded device into buffer phosphate solution, pH 7.4, which contained 0.3% SDS, to increase the solubility of paclitaxel, and the daily release was determined by HPLC.

CC(=O)O[C@H]1C(=O)[C@@]2(C)[C@H]([C@H](OC(=O)c3ccccc3)[C@]3(O)C[C@H](OC(=O)[C@H](O)[C@@H](NC(=O)c4ccccc4)c4ccccc4)C(C)=C1C3(C)C)[C@]1(OC(C)=O)CO[C@@H]1C[C@@H]2O [paclitaxel]
release of paclitaxel from nanoparticles [1]: released constantly from these particles during two weeks
absorbed drug released into the buffer medium ([2]; after 3 days): about 50%
duration of slow release of the remaining drug [2]: over 3 weeks

From patent publication US20090232867A1, “Modified conductive surfaces having active substances attached thereto” (Elutex Ltd., priority 2004, published 2009)
